{"source": "PubChem BioAssay AID1259407", "about": "(Chemical Carcinogenesis Research Information System (CCRIS), 2018)", "system": "CCRIS mutagenicity, Ames/micronucleus/aberration tests", "experiment": "CCRIS mutagenicity studies", "note": "Activity calls are given as the source filed them. No rule for the calls is given here.", "data": [{"compound": "O=C(O)CN(CC(=O)O)CC(=O)O", "values": [{"measurement": "mutagenic call", "setting": "Test System: AMES SALMONELLA TYPHIMURIUM, Strain/Indicator: TA1535, Metabolic Activation: NONE, Method: STANDARD PLATE", "result": "inactive; negative"}, {"measurement": "mutagenic call", "setting": "Test System: AMES SALMONELLA TYPHIMURIUM, Strain/Indicator: TA1535, Metabolic Activation: NONE, Method: SUSPENSION/PLATE", "result": "inactive; negative"}, {"measurement": "mutagenic call", "setting": "Test System: AMES SALMONELLA TYPHIMURIUM, Strain/Indicator: TA1535, Metabolic Activation: RAT, LIVER, S-9, AROCLOR 1254 (10 OR 30%), Method: PREINCUBATION", "result": "inactive; negative"}, {"measurement": "mutagenic call", "setting": "Test System: AMES SALMONELLA TYPHIMURIUM, Strain/Indicator: TA1535, Metabolic Activation: RAT, LIVER, S-9, AROCLOR 1254, Method: STANDARD PLATE", "result": "inactive; negative"}, {"measurement": "mutagenic call", "setting": "Test System: AMES SALMONELLA TYPHIMURIUM, Strain/Indicator: TA1535, Metabolic Activation: RAT, LIVER, S-9, Method: STANDARD PLATE", "result": "inactive; negative"}, {"measurement": "mutagenic call", "setting": "Test System: AMES SALMONELLA TYPHIMURIUM, Strain/Indicator: TA1537, Metabolic Activation: HAMSTER, LIVER, S-9, AROCLOR 1254 (10 OR 30%), Method: PREINCUBATION", "result": "inactive; negative"}, {"measurement": "mutagenic call", "setting": "Test System: AMES SALMONELLA TYPHIMURIUM, Strain/Indicator: TA1537, Metabolic Activation: HAMSTER, LIVER, S-9, AROCLOR 1254, Method: STANDARD PLATE", "result": "inactive; negative"}, {"measurement": "mutagenic call", "setting": "Test System: AMES SALMONELLA TYPHIMURIUM, Strain/Indicator: TA1537, Metabolic Activation: HAMSTER, LIVER, S-9, Method: STANDARD PLATE", "result": "inactive; negative"}, {"measurement": "mutagenic call", "setting": "Test System: AMES SALMONELLA TYPHIMURIUM, Strain/Indicator: TA1537, Metabolic Activation: MOUSE, LIVER, S-9, AROCLOR 1254, Method: STANDARD PLATE", "result": "inactive; negative"}, {"measurement": "mutagenic call", "setting": "Test System: AMES SALMONELLA TYPHIMURIUM, Strain/Indicator: TA1537, Metabolic Activation: MOUSE, LIVER, S-9, Method: STANDARD PLATE", "result": "inactive; negative"}, {"measurement": "mutagenic call", "setting": "Test System: AMES SALMONELLA TYPHIMURIUM, Strain/Indicator: TA1537, Metabolic Activation: NONE, Method: PREINCUBATION", "result": "inactive; negative"}, {"measurement": "mutagenic call", "setting": "Test System: AMES SALMONELLA TYPHIMURIUM, Strain/Indicator: TA1537, Metabolic Activation: NONE, Method: STANDARD PLATE", "result": "inactive; negative"}, {"measurement": "mutagenic call", "setting": "Test System: AMES SALMONELLA TYPHIMURIUM, Strain/Indicator: TA1537, Metabolic Activation: NONE, Method: SUSPENSION/PLATE", "result": "inactive; negative"}, {"measurement": "mutagenic call", "setting": "Test System: AMES SALMONELLA TYPHIMURIUM, Strain/Indicator: TA1537, Metabolic Activation: RAT, LIVER, S-9, AROCLOR 1254 (10 OR 30%), Method: PREINCUBATION", "result": "inactive; negative"}, {"measurement": "mutagenic call", "setting": "Test System: AMES SALMONELLA TYPHIMURIUM, Strain/Indicator: TA1537, Metabolic Activation: RAT, LIVER, S-9, AROCLOR 1254, Method: STANDARD PLATE", "result": "inactive; negative"}, {"measurement": "mutagenic call", "setting": "Test System: AMES SALMONELLA TYPHIMURIUM, Strain/Indicator: TA1537, Metabolic Activation: RAT, LIVER, S-9, Method: STANDARD PLATE", "result": "inactive; negative"}, {"measurement": "mutagenic call", "setting": "Test System: AMES SALMONELLA TYPHIMURIUM, Strain/Indicator: TA1538, Metabolic Activation: HAMSTER, LIVER, S-9, AROCLOR 1254, Method: STANDARD PLATE", "result": "inactive; negative"}, {"measurement": "mutagenic call", "setting": "Test System: AMES SALMONELLA TYPHIMURIUM, Strain/Indicator: TA1538, Metabolic Activation: HAMSTER, LIVER, S-9, Method: STANDARD PLATE", "result": "inactive; negative"}, {"measurement": "mutagenic call", "setting": "Test System: AMES SALMONELLA TYPHIMURIUM, Strain/Indicator: TA1538, Metabolic Activation: MOUSE, LIVER, S-9, AROCLOR 1254, Method: STANDARD PLATE", "result": "inactive; negative"}, {"measurement": "mutagenic call", "setting": "Test System: AMES SALMONELLA TYPHIMURIUM, Strain/Indicator: TA1538, Metabolic Activation: MOUSE, LIVER, S-9, Method: STANDARD PLATE", "result": "inactive; negative"}, {"measurement": "mutagenic call", "setting": "Test System: AMES SALMONELLA TYPHIMURIUM, Strain/Indicator: TA1538, Metabolic Activation: NONE, Method: STANDARD PLATE", "result": "inactive; negative"}, {"measurement": "mutagenic call", "setting": "Test System: AMES SALMONELLA TYPHIMURIUM, Strain/Indicator: TA1538, Metabolic Activation: RAT, LIVER, S-9, AROCLOR 1254, Method: STANDARD PLATE", "result": "inactive; negative"}, {"measurement": "mutagenic call", "setting": "Test System: AMES SALMONELLA TYPHIMURIUM, Strain/Indicator: TA1538, Metabolic Activation: RAT, LIVER, S-9, Method: STANDARD PLATE", "result": "inactive; negative"}, {"measurement": "mutagenic call", "setting": "Test System: Ames Salmonella typhimurium, Strain/Indicator: TA98, Metabolic Activation: None, Method: Plate incorporation", "result": "inactive; negative"}, {"measurement": "mutagenic call", "setting": "Test System: Ames Salmonella typhimurium, Strain/Indicator: TA98, Metabolic Activation: Rat, Kidney, S9, Aroclor 1254 with NADP, Method: Preincubation", "result": "inactive; negative"}, {"measurement": "mutagenic call", "setting": "Test System: Ames Salmonella typhimurium, Strain/Indicator: TA98, Metabolic Activation: Rat, Kidney, S9, Aroclor 1254 with arachidonic acid instead of NADP, Method: Preincubation", "result": "inactive; negative"}, {"measurement": "mutagenic call", "setting": "Test System: Ames Salmonella typhimurium, Strain/Indicator: TA98, Metabolic Activation: Rat, Liver, S9, Aroclor 1254, Method: Preincubation", "result": "inactive; negative"}, {"measurement": "mutagenic call", "setting": "Test System: Ames Salmonella typhimurium, Strain/Indicator: TA100, Metabolic Activation: None, Method: Plate incorporation", "result": "inactive; negative"}, {"measurement": "mutagenic call", "setting": "Test System: Ames Salmonella typhimurium, Strain/Indicator: TA100, Metabolic Activation: Rat, Kidney, S9, Aroclor 1254 with NADP, Method: Preincubation", "result": "inactive; negative"}, {"measurement": "mutagenic call", "setting": "Test System: Ames Salmonella typhimurium, Strain/Indicator: TA100, Metabolic Activation: Rat, Kidney, S9, Aroclor 1254 with arachidonic acid instead of NADP, Method: Preincubation", "result": "inactive; negative"}, {"measurement": "mutagenic call", "setting": "Test System: Ames Salmonella typhimurium, Strain/Indicator: TA100, Metabolic Activation: Rat, Liver, S9, Aroclor 1254, Method: Preincubation", "result": "inactive; negative"}, {"measurement": "mutagenic call", "setting": "Test System: Ames Salmonella typhimurium, Strain/Indicator: TA102, Metabolic Activation: None, Method: Plate incorporation", "result": "inactive; negative. significant decrease at three highest doses."}, {"measurement": "mutagenic call", "setting": "Test System: Ames Salmonella typhimurium, Strain/Indicator: TA102, Metabolic Activation: Rat, Kidney, S9, Aroclor 1254 with NADP, Method: Preincubation", "result": "inactive; negative"}, {"measurement": "mutagenic call", "setting": "Test System: Ames Salmonella typhimurium, Strain/Indicator: TA102, Metabolic Activation: Rat, Kidney, S9, Aroclor 1254 with arachidonic acid instead of NADP, Method: Preincubation", "result": "inactive; negative"}, {"measurement": "mutagenic call", "setting": "Test System: Ames Salmonella typhimurium, Strain/Indicator: TA102, Metabolic Activation: Rat, Liver, S9, Aroclor 1254, Method: Preincubation", "result": "inactive; negative"}, {"measurement": "mutagenic call", "setting": "Test System: Ames Salmonella typhimurium, Strain/Indicator: TA1537, Metabolic Activation: None, Method: Plate incorporation", "result": "inactive; negative"}, {"measurement": "mutagenic call", "setting": "Test System: Ames Salmonella typhimurium, Strain/Indicator: TA1537, Metabolic Activation: Rat, Kidney, S9, Aroclor 1254 with NADP, Method: Preincubation", "result": "inactive; negative"}, {"measurement": "mutagenic call", "setting": "Test System: Ames Salmonella typhimurium, Strain/Indicator: TA1537, Metabolic Activation: Rat, Kidney, S9, Aroclor 1254 with arachidonic acid instead of NADP, Method: Preincubation", "result": "inactive; negative"}, {"measurement": "mutagenic call", "setting": "Test System: Ames Salmonella typhimurium, Strain/Indicator: TA1537, Metabolic Activation: Rat, Liver, S9, Aroclor 1254, Method: Preincubation", "result": "inactive; negative"}, {"measurement": "mutagenic call", "setting": "Test System: E. COLI, Strain/Indicator: WP2 UVRA, Metabolic Activation: HAMSTER, LIVER, S-9, AROCLOR 1254, Method: STANDARD PLATE", "result": "inactive; negative"}, {"measurement": "mutagenic call", "setting": "Test System: E. COLI, Strain/Indicator: WP2 UVRA, Metabolic Activation: HAMSTER, LIVER, S-9, Method: STANDARD PLATE", "result": "inactive; negative"}, {"measurement": "mutagenic call", "setting": "Test System: E. COLI, Strain/Indicator: WP2 UVRA, Metabolic Activation: MOUSE, LIVER, S-9, AROCLOR 1254, Method: STANDARD PLATE", "result": "inactive; negative"}, {"measurement": "mutagenic call", "setting": "Test System: E. COLI, Strain/Indicator: WP2 UVRA, Metabolic Activation: MOUSE, LIVER, S-9, Method: STANDARD PLATE", "result": "inactive; negative"}, {"measurement": "mutagenic call", "setting": "Test System: E. COLI, Strain/Indicator: WP2 UVRA, Metabolic Activation: NONE, Method: STANDARD PLATE", "result": "inactive; negative"}, {"measurement": "mutagenic call", "setting": "Test System: E. COLI, Strain/Indicator: WP2 UVRA, Metabolic Activation: RAT, LIVER, S-9, AROCLOR 1254, Method: STANDARD PLATE", "result": "inactive; negative"}, {"measurement": "mutagenic call", "setting": "Test System: E. COLI, Strain/Indicator: WP2 UVRA, Metabolic Activation: RAT, LIVER, S-9, Method: STANDARD PLATE", "result": "inactive; negative"}, {"measurement": "mutagenic call", "setting": "Test System: MOUSE LYMPHOMA, Strain/Indicator: L5178Y (TK+/TK-), Metabolic Activation: NONE, Method: SUSPENSION/PLATE", "result": "inactive; negative"}, {"measurement": "mutagenic call", "setting": "Test System: MOUSE LYMPHOMA, Strain/Indicator: L5178Y (TK+/TK-), Metabolic Activation: RAT, LIVER, S-9, AROCLOR 1254, Method: SUSPENSION/PLATE", "result": "inactive; negative"}, {"measurement": "mutagenic call", "setting": "Test System: MOUSE LYMPHOMA, Strain/Indicator: L5178Y (TK+/TK-), Metabolic Activation: RAT, LIVER, S-9, Method: SUSPENSION/PLATE", "result": "inactive; negative"}, {"measurement": "mutagenic call", "setting": "Test System: Mouse lymphoma, Strain/Indicator: L5178Y (tk+/tk-), Metabolic Activation: None, Method: Microwell", "result": "active; positive. small colonies only."}]}]}
